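Cells were grown in 96-well plates and exposed to each compound for 48 hours at five concentrations; endpoints were interpolated linearly between bracketing concentrations, or set to the highest concentration if not reached. GI50: concentration for 50% inhibition of growth.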 Activity calls are given as the source filed them. Cut-off read from the data, not from the text of the source: active = GI50 up to about 1.1 µM and inactive = higher. Bounds are passed on as bounds.

Eight compounds from ChEMBL document CHEMBL1201862, “PubChem BioAssay data set” (2004) can be followed below.

Among the test systems are NCI/ADR-RES; OVCAR-5; SNB-19; CAKI-1; OVCAR-3; TK-10; EKVX; UO-31; A498; MOLT-4; LOX IMVI; MDA-MB-231; T47D; SK-MEL-28; HT-29; Malme-3M; NCI-H226; MDA-MB-435; MCF7; HL-60.
What all share (test): DTP human tumour cell line panel, 48 h

As for `CN1C(=O)CC2CCCN2C1=O` (stereo not given), the GI50 in the test on NCI/ADR-RES, in the test with OVCAR-5, with SNB-19, in the test with CAKI-1, with OVCAR-3 and in the test with TK-10 was > 100 µM (inactive) in each case. In addition, the GI50 in the test on EKVX, in the test on UO-31, in the test on A498, in the test with MOLT-4, in the test with LOX IMVI and with MDA-MB-231 was > 100 µM (inactive) in each case. In addition, the GI50 – broadly, the concentration that inhibits growth by half – was > 100 µM (inactive) with T47D; 5.09 µM (inactive) in the test on SK-MEL-28; > 100 µM (inactive) in the test with HT-29; > 100 µM (inactive) with Malme-3M; > 100 µM (inactive) in the test with NCI-H226; > 100 µM (inactive) in the test with MDA-MB-435. Moreover, the GI50 in the test on MCF7 is > 100 µM (inactive).
For `CCOC(=O)c1cc([N+](=O)[O-])cc([N+](=O)[O-])c1Sc1[nH]cnc2ncnc1-2`, the GI50 with NCI/ADR-RES is 3.11 µM (inactive); with OVCAR-5 it was 9.71 µM (inactive); with SNB-19 it was 19.5 µM (inactive); with CAKI-1, 1.85 µM (inactive); with OVCAR-3, 1.12 µM (active); in the test with TK-10, 4.5 µM (inactive). Moreover, the GI50 is 5.08 µM (inactive) in the test on EKVX; 1.75 µM (inactive) with UO-31; 12.2 µM (inactive) in the test with A498; 1.24 µM (inactive) in the test on MOLT-4; 0.454 µM (active) with LOX IMVI; 1.94 µM (inactive) with HL-60. In addition, the GI50 in the test with MDA-MB-231 was 7.01 µM (inactive); in the test on T47D, 1.2 µM (inactive); with SK-MEL-28, 3.13 µM (inactive); in the test on HT-29, 2.37 µM (inactive); in the test on NCI-H226, 24.1 µM (inactive); in the test on MDA-MB-435, 1.6 µM (inactive). Besides, the GI50 in the test with MCF7 is 1.61 µM (inactive).
For the compound `Oc1ccc2c(c1)OCC(O)(c1ccccc1O)C2` (stereo not given), the GI50 with NCI/ADR-RES, in the test with OVCAR-5, in the test on SNB-19, with CAKI-1, with OVCAR-3 and in the test on TK-10 was > 100 µM (inactive) in each case. The GI50 in the test on EKVX, in the test on UO-31, with A498, with MOLT-4, with LOX IMVI and with HL-60 was > 100 µM (inactive) in each case. Further, the GI50 with MDA-MB-231, in the test with T47D, with SK-MEL-28, in the test on HT-29, in the test on NCI-H226 and in the test on MDA-MB-435 was > 100 µM (inactive) in each case. Moreover, the GI50 with MCF7 was > 100 µM (inactive).
Consider `CC(C)CC1NC(=O)C(C(C)C)NC(=O)CC(C)COC(=O)C(CC(C)C)N(C)C(=O)C(C(C)C)NC(=O)C(C(C)C)OC1=O` (stereo not given), for which the GI50 was > 50 µM (inactive) in the test on NCI/ADR-RES; 37.7 µM (inactive) in the test with OVCAR-5; 17.1 µM (inactive) with SNB-19; 48.9 µM (inactive) in the test on CAKI-1; > 50 µM (inactive) with OVCAR-3; > 50 µM (inactive) with EKVX. The GI50 was > 50 µM (inactive) in the test on UO-31; > 50 µM (inactive) in the test on A498; > 50 µM (inactive) with MOLT-4; 23.5 µM (inactive) in the test with LOX IMVI; 19.7 µM (inactive) in the test with MDA-MB-231; > 50 µM (inactive) in the test with T47D. Besides, the GI50 in the test with SK-MEL-28 was > 50 µM (inactive); with HT-29, > 50 µM (inactive); in the test on Malme-3M, > 50 µM (inactive); with NCI-H226, 13 µM (inactive); in the test on MDA-MB-435, > 50 µM (inactive); with MCF7, > 50 µM (inactive).
Take `CN(C)C1=Nc2ccccc2C(=S)N2CSCC12` (stereo not given): the GI50 with NCI/ADR-RES is 73.8 µM (inactive); with OVCAR-5, > 100 µM (inactive); in the test on SNB-19 it was > 100 µM (inactive); with CAKI-1, 20.9 µM (inactive); in the test with OVCAR-3, 32.7 µM (inactive); with TK-10 it was > 100 µM (inactive). For the same compound, the GI50 in the test on EKVX was 41.1 µM (inactive); with UO-31, > 100 µM (inactive); in the test with A498 it was > 100 µM (inactive); in the test with MOLT-4, 22.4 µM (inactive); in the test on LOX IMVI it was 43.3 µM (inactive); in the test with MDA-MB-231, 44.3 µM (inactive). For the same compound, the GI50 is 89.5 µM (inactive) in the test on T47D; 81.1 µM (inactive) in the test on SK-MEL-28; 75.9 µM (inactive) in the test with HT-29; 32.7 µM (inactive) in the test on Malme-3M; > 100 µM (inactive) in the test with NCI-H226; > 100 µM (inactive) with MDA-MB-435. The GI50 in the test with MCF7 is 47.3 µM (inactive).
With `O=c1[nH]c(=O)n(C2C(CO)OC(CO)C2O)cc1F` (stereo not given), the GI50 in the test with NCI/ADR-RES, in the test on OVCAR-5, in the test on SNB-19, in the test on CAKI-1, with OVCAR-3 and in the test with TK-10 was > 100 µM (inactive) in each case. The GI50 in the test with EKVX, in the test with UO-31, in the test on A498, in the test on MOLT-4, in the test with LOX IMVI and in the test with MDA-MB-231 was > 100 µM (inactive) in each case. In addition, the GI50 in the test on T47D, in the test with SK-MEL-28, in the test on HT-29, with Malme-3M, with NCI-H226 and with MDA-MB-435 was > 100 µM (inactive) each time. For the same compound, in the test with MCF7, the GI50 is > 100 µM (inactive).
With `Nc1ncc2c(n1)-c1ccccc1OC2NC1CC1` (stereo not given), the GI50 in the test with NCI/ADR-RES, in the test on OVCAR-5, in the test on SNB-19, with CAKI-1, in the test with OVCAR-3 and in the test on TK-10 was > 100 µM (inactive) each time. The GI50 with EKVX was 97.5 µM (inactive); in the test on UO-31 it was > 100 µM (inactive); with A498 it was > 100 µM (inactive); with MOLT-4, > 100 µM (inactive); in the test on LOX IMVI, > 100 µM (inactive); in the test with HL-60 it was > 100 µM (inactive). The GI50 in the test with MDA-MB-231, in the test on T47D, with HT-29, in the test on NCI-H226, in the test on MDA-MB-435 and in the test with MCF7 was > 100 µM (inactive) in each case.
Turning to `CC(=O)Nc1ccc(Nc2cc(=O)n(C)c(=O)[nH]2)cc1`, the GI50 in the test on NCI/ADR-RES, with OVCAR-5, in the test with SNB-19, in the test with CAKI-1, in the test with OVCAR-3 and with TK-10 was > 100 µM (inactive) in each case. Besides, the GI50 in the test with EKVX, with UO-31, in the test on A498, in the test on MOLT-4, with LOX IMVI and with MDA-MB-231 was > 100 µM (inactive) in each case. Besides, the GI50 with T47D, in the test with SK-MEL-28, with HT-29, in the test on Malme-3M, in the test on NCI-H226 and in the test on MDA-MB-435 was > 100 µM (inactive) throughout. In the test on MCF7, the GI50 was > 100 µM (inactive).
